Source: PubChem BioAssay AID1745844 (Carcinogenic Potency Database (CPDB), 2022)
“And” between values parts separate entries of the source, which are not always exact repeats. Equal entries are not always repeated. The source made the active and inactive calls. How the calls were made is not given here.

Test system: rodent lifetime carcinogenesis bioassay, tumor incidence TD50
Experiment: carcinogenic potency in animals, long-term in vivo studies, CPDB compilation (AID 1745844)

With `[O-][Br+2]([O-])O` the TD50 (hamster, strain Syrian Golden, males, in drinking water, site: kidney, lesion: renal-cell tumor, dosed 89 weeks, study length 89 weeks) was 533 mg/kg/day, the TD50 (mouse, strain B6C3F1, females, in drinking water, site: any site (literature study), lesion: several types, types named in the paper, dosed 78 weeks, study length 104 weeks) was 477 mg/kg/day and the TD50 (mouse, strain B6C3F1, females, in drinking water, site: liver, lesion: adenoma, dosed 78 weeks, study length 104 weeks) was 1180 mg/kg/day. It also gave a TD50 (mouse, strain B6C3F1, females, in drinking water, site: liver, lesion: several types, types named in the paper, dosed 78 weeks, study length 104 weeks) of 1710 mg/kg/day, a TD50 (mouse, strain B6C3F1, females, in drinking water, site: lung, lesion: adenoma, dosed 78 weeks, study length 104 weeks) of 2030 mg/kg/day and a TD50 (mouse, strain B6C3F1, females, in drinking water, site: lung, lesion: several types, types named in the paper, dosed 78 weeks, study length 104 weeks) of 1050 mg/kg/day. For the same compound, the TD50 (mouse, strain B6C3F1, males, in drinking water, site: kidney, lesion: renal-cell carcinoma, dosed 100 weeks, study length 100 weeks) was 92.5 mg/kg/day, the TD50 (mouse, strain B6C3F1, males, in drinking water, site: kidney, lesion: several types, types named in the paper, dosed 100 weeks, study length 100 weeks) was 53.8 mg/kg/day and the TD50 (mouse, strain Theiller's Original, females, in feed, site: liver, lesion: hemangioma, dosed 80 weeks, study length 80 weeks) was 347 mg/kg/day (inactive). The carcinogen call (mouse, strain Theiller's Original, males, in feed, site: any site (literature study), lesion: malignant tumor, dosed 80 weeks, study length 80 weeks) was “negative (inactive)”, the carcinogen call (mouse, strain Theiller's Original, males, in feed, site: liver, lesion: one or several types, types not named, dosed 80 weeks, study length 80 weeks) was “negative (inactive)” and the TD50 (rat, strain F344/DuCrj, males, in drinking water, site: kidney, lesion: adenocarcinoma, dosed 26 weeks, study length 104 weeks) was 79.2 mg/kg/day. The TD50 (rat, strain F344/DuCrj, males, in drinking water, site: kidney, lesion: adenocarcinoma, dosed 39 weeks, study length 104 weeks) was 16.9 mg/kg/day, the TD50 (rat, strain F344/DuCrj, males, in drinking water, site: kidney, lesion: adenocarcinoma, dosed 52 weeks, study length 104 weeks) was 35.5 mg/kg/day and the TD50 (rat, strain F344/DuCrj, males, in drinking water, site: kidney, lesion: adenocarcinoma, dosed 104 weeks, study length 104 weeks) was 105 mg/kg/day and 224 mg/kg/day. It also gave a TD50 (rat, strain F344/DuCrj, males, in drinking water, site: kidney, lesion: adenoma, dosed 26 weeks, study length 104 weeks) of 6.67 mg/kg/day, a TD50 (rat, strain F344/DuCrj, males, in drinking water, site: kidney, lesion: adenoma, dosed 39 weeks, study length 104 weeks) of 5.57 mg/kg/day and a TD50 (rat, strain F344/DuCrj, males, in drinking water, site: kidney, lesion: adenoma, dosed 52 weeks, study length 52 weeks) of 4.98 mg/kg/day. The TD50 (rat, strain F344/DuCrj, males, in drinking water, site: kidney, lesion: adenoma, dosed 52 weeks, study length 104 weeks) was 10.1 mg/kg/day, the TD50 (rat, strain F344/DuCrj, males, in drinking water, site: kidney, lesion: adenoma, dosed 104 weeks, study length 104 weeks) was 48 mg/kg/day and 35.7 mg/kg/day and the TD50 (rat, strain F344/DuCrj, males, in drinking water, site: kidney, lesion: renal-cell tumor, dosed 104 weeks, study length 104 weeks) was 28.9 mg/kg/day. For the same compound, the TD50 (rat, strain F344/DuCrj, males, in drinking water, site: kidney, lesion: several types, types named in the paper, dosed 26 weeks, study length 104 weeks) was 6.67 mg/kg/day, the TD50 (rat, strain F344/DuCrj, males, in drinking water, site: kidney, lesion: several types, types named in the paper, dosed 39 weeks, study length 104 weeks) was 4.81 mg/kg/day and the TD50 (rat, strain F344/DuCrj, males, in drinking water, site: kidney, lesion: several types, types named in the paper, dosed 52 weeks, study length 104 weeks) was 8.32 mg/kg/day. The TD50 (rat, strain F344/DuCrj, males, in drinking water, site: kidney, lesion: several types, types named in the paper, dosed 104 weeks, study length 104 weeks) was 28.7 mg/kg/day, the TD50 (rat, strain F344/DuCrj, males, in drinking water, site: liver, lesion: neoplastic nodule, dosed 104 weeks, study length 104 weeks) was 53.2 mg/kg/day and the TD50 (rat, strain F344/DuCrj, males, in drinking water, site: peritoneum, lesion: mesothelioma, dosed 26 weeks, study length 104 weeks) was 7.84 mg/kg/day. For the same compound, the TD50 (rat, strain F344/DuCrj, males, in drinking water, site: peritoneum, lesion: mesothelioma, dosed 39 weeks, study length 104 weeks) was 14 mg/kg/day, the TD50 (rat, strain F344/DuCrj, males, in drinking water, site: peritoneum, lesion: mesothelioma, dosed 52 weeks, study length 52 weeks) was 25.6 mg/kg/day and the TD50 (rat, strain F344/DuCrj, males, in drinking water, site: peritoneum, lesion: mesothelioma, dosed 52 weeks, study length 104 weeks) was 19.4 mg/kg/day. The TD50 (rat, strain F344/DuCrj, males, in drinking water, site: peritoneum, lesion: mesothelioma, dosed 104 weeks, study length 104 weeks) was 12.4 mg/kg/day and 19.5 mg/kg/day, the TD50 (rat, strain F344/DuCrj, males, in drinking water, site: thyroid gland, lesion: follicular-cell adenoma, dosed 104 weeks, study length 104 weeks) was 59.5 mg/kg/day and the TD50 (rat, strain F344/DuCrj, males, in drinking water, site: thyroid gland, lesion: follicular-cell tumor, dosed 26 weeks, study length 104 weeks) was 11.3 mg/kg/day. The TD50 (rat, strain F344/DuCrj, males, in drinking water, site: thyroid gland, lesion: follicular-cell tumor, dosed 52 weeks, study length 104 weeks) was 19.4 mg/kg/day, the TD50 (rat, strain F344/DuCrj, males, in drinking water, site: thyroid gland, lesion: follicular-cell tumor, dosed 104 weeks, study length 104 weeks) was 39.8 mg/kg/day and 54.7 mg/kg/day and the TD50 (rat, strain Fischer 344, females, in drinking water, site: any site (literature study), lesion: several types, types named in the paper, dosed 110 weeks, study length 111 weeks) was 9.05 mg/kg/day. It also gave a TD50 (rat, strain Fischer 344, females, in drinking water, site: kidney, lesion: adenocarcinoma, dosed 110 weeks, study length 111 weeks) of 16.4 mg/kg/day, a TD50 (rat, strain Fischer 344, females, in drinking water, site: kidney, lesion: adenoma, dosed 110 weeks, study length 111 weeks) of 87.5 mg/kg/day and a TD50 (rat, strain Fischer 344, females, in drinking water, site: kidney, lesion: several types, types named in the paper, dosed 110 weeks, study length 111 weeks) of 13.7 mg/kg/day. The TD50 (rat, strain Fischer 344, females, in drinking water, site: thyroid gland, lesion: several types, types named in the paper, dosed 110 weeks, study length 111 weeks) was 97.6 mg/kg/day, the TD50 (rat, strain Fischer 344, males, in drinking water, site: kidney, lesion: adenocarcinoma, dosed 110 weeks, study length 111 weeks) was 12.6 mg/kg/day and the TD50 (rat, strain Fischer 344, males, in drinking water, site: kidney, lesion: adenoma, dosed 110 weeks, study length 111 weeks) was 46.2 mg/kg/day. It also gave a TD50 (rat, strain Fischer 344, males, in drinking water, site: kidney, lesion: renal-cell adenoma, dosed 52 weeks, study length 52 weeks) of 16.7 mg/kg/day, a TD50 (rat, strain Fischer 344, males, in drinking water, site: kidney, lesion: renal-cell adenoma, dosed 77 weeks, study length 77 weeks) of 15.3 mg/kg/day and a TD50 (rat, strain Fischer 344, males, in drinking water, site: kidney, lesion: renal-cell adenoma, dosed 100 weeks, study length 100 weeks) of 31.1 mg/kg/day. For the same compound, the TD50 (rat, strain Fischer 344, males, in drinking water, site: kidney, lesion: renal-cell carcinoma, dosed 100 weeks, study length 100 weeks) was 62.2 mg/kg/day, the TD50 (rat, strain Fischer 344, males, in drinking water, site: kidney, lesion: several types, types named in the paper, dosed 100 weeks, study length 100 weeks) was 20.8 mg/kg/day and the TD50 (rat, strain Fischer 344, males, in drinking water, site: kidney, lesion: several types, types named in the paper, dosed 110 weeks, study length 111 weeks) was 9.62 mg/kg/day. For the same compound, the TD50 (rat, strain Fischer 344, males, in drinking water, site: liver, lesion: several types, types named in the paper, dosed 110 weeks, study length 111 weeks) was 164 mg/kg/day, the TD50 (rat, strain Fischer 344, males, in drinking water, site: peritoneum, lesion: mesothelioma, dosed 110 weeks, study length 111 weeks) was 25.3 mg/kg/day and the TD50 (rat, strain Fischer 344, males, in drinking water, site: thyroid gland, lesion: follicular-cell adenoma, dosed 100 weeks, study length 100 weeks) was 35.2 mg/kg/day. The TD50 (rat, strain Fischer 344, males, in drinking water, site: thyroid gland, lesion: follicular-cell carcinoma, dosed 77 weeks, study length 77 weeks) was 34.8 mg/kg/day, the TD50 (rat, strain Fischer 344, males, in drinking water, site: thyroid gland, lesion: follicular-cell carcinoma, dosed 100 weeks, study length 100 weeks) was 62.9 mg/kg/day and the TD50 (rat, strain Fischer 344, males, in drinking water, site: thyroid gland, lesion: several types, types named in the paper, dosed 77 weeks, study length 77 weeks) was 21.8 mg/kg/day. For the same compound, the TD50 (rat, strain Fischer 344, males, in drinking water, site: thyroid gland, lesion: several types, types named in the paper, dosed 100 weeks, study length 100 weeks) was 22.2 mg/kg/day, the TD50 (rat, strain Fischer 344, males, in drinking water, site: tunica vaginalis, lesion: mesothelioma, dosed 52 weeks, study length 52 weeks) was 36.1 mg/kg/day and the TD50 (rat, strain Fischer 344, males, in drinking water, site: tunica vaginalis, lesion: mesothelioma, dosed 77 weeks, study length 77 weeks) was 15.3 mg/kg/day. It also gave a TD50 (rat, strain Fischer 344, males, in drinking water, site: tunica vaginalis, lesion: mesothelioma, dosed 100 weeks, study length 100 weeks) of 11.1 mg/kg/day.
With `CC1CN1P(=O)(N1CC1C)N1CC1C` (centres undefined) the TD50 (rat, strain Sherman, males, by gavage, site: all sites, lesion: lymphatic leukemia, dosed 60 weeks, study length 60 weeks) was 4.46 mg/kg/day.
